These results are taken from US10328092B2, “Methods and compositions for treatment of drug addiction” (The Royal Institution for the Advancement of Learning / …, priority 2015, dated 2019).

The test system of one data set is adult microglial cells. Put plainly: TNFα mRNA in cultured adult mouse microglia. Type of data set: cell-based. Particulars: cocaine 1 μm, 3 hours. On the procedure:
(SEQ ID NO: 1) [200 nM]; mouse TNFα reverse, […] (SEQ ID NO: 2) [200 nM]; mouse GAPDH forward, […] (SEQ ID NO: 3) [300 nM]; mouse GAPDH reverse, […] (SEQ ID NO: 4) [300 nM]; rat TNFα forward, […] (SEQ ID NO: 1) [600 nM]; rat TNFα reverse, […] (SEQ ID NO: 5) [600 nM]; rat cyclophilin forward, […] (SEQ ID NO: 6) [500 nM]; rat cyclophilin reverse, […] (SEQ ID NO: 7) [500 nM]. After 40 cycles, the Ct values were determined.
Adult male C57BL/6 mice (8-12 weeks) underwent cardiac perfusion with Hank's Balanced Salt Solution (HBSS) and whole brains were removed. Cortices and striata were dissected, cut in to small pieces and subjected to enzymatic digestion with the Neural Tissue Dissociation Kit (P) (Miltenyi Biotech, US cat no. 130-092-628), as per manufactures instructions. Tissue was homogenised and resuspended in 35% isotonic Percoll, overlayed with HBSS and spun at 400 g for 45 mins for the removal of myelin. Pure populations of microglial cells were obtained through magnetic bead cell sorting using CD11b microbeads (Miltenyi, cat no. 130-093-634). Aliquots from positive and negative bead selected fractions were removed for cell staining to assess cell purity. […] Cells were acquired using a BD FACS Canto II and analyzed using BD FACSDiva software. […]

In data set [1] the test system is mice. Put plainly: Basal locomotion. The data set is classed as in vivo, mouse. As to the method: To determine whether the low TNFα response induced by MPLA can affect the behavioural response to cocaine, it was first assessed if MPLA can alter the basal locomotion of mice. Mice were injected with 10 ug of MPLA, and tested 24 hrs later. No difference in basal locomotion was observed (n=4), compared with saline injected control mice (FIG. 2).
Locomotion was monitored in 30×30 cm plexiglass boxes by the EthoVision video-tracking system (Noldus) and performed near the end of the light phase of the light-dark cycle under dim red light. After habituating animals to handling, mice received IP injections of saline or cocaine and their activity was recorded for 15 min. […] Following 10 days without injections (withdrawal), mice receive a challenge dose of cocaine (15 mg/kg) and locomotor activity again assessed (day 17). Total distance traveled and stereotypy were evaluated from video by EthoVision. For stereotypy, the frequency of which the mouse stops moving (#pauses/min) was measured using a threshold start velocity of 2.00/second and a threshold stop velocity of 0 cm/s. The number of turns per minute (# turns/min) was measured by calculating the frequency for which the path of the mouse turns over a minimum distance of 3.00 cm. Velocity was assessed as the mean distance traveled (cm) over time (s).

Data set [2] deals with mice. Put plainly: Cocaine-induced behavioural sensitization, locomotor response. The data set is classed as in vivo, mouse. On the procedure: A cocaine induced behavioral sensitization animal model of drug addiction was used. Sensitization refers to the augmentation of behavioral responses to drugs of abuse that occurs during their repeated administration and persists long after drug exposure is discontinued. In this paradigm mice are injected with 15 mg/kg cocaine and put in an open field box and measure the cocaine stimulatory effects on locomotor for 15 min. After the first run mice are injected with 10 ug of MPL and returned to their home cage.
The response of mice to repeated doses of cocaine was compared. After habituating animals to handling, the animals receive an IP injection and have their locomotor activity monitored in open-field chambers using Ethovision software for 15 min. After two days of saline injections, mice received five daily injections of cocaine (15 mg/kg) and assayed for locomotion. Following 7-10 days without injections (withdrawal), mice receive a challenge dose of cocaine (also 15 mg/kg) and locomotor activity again assessed (see Examples 1 and 2). A minimum of three separate cohorts have been run.
(§1) Locomotion was monitored in 30×30 cm plexiglass boxes by the EthoVision video-tracking system (Noldus) and performed near the end of the light phase of the light-dark cycle under dim red light. After habituating animals to handling, mice received IP injections of saline or cocaine and their activity was recorded for 15 min. Mice were tested during habituation to injection and the activity boxes (saline; days 1-2) and 5 repeated cocaine injections (15 mg/kg; days 3-7). Following 10 days without injections (withdrawal), mice receive a challenge dose of cocaine (15 mg/kg) and locomotor activity again assessed (day 17). Total distance traveled and stereotypy were evaluated from video by EthoVision. For stereotypy, the frequency of which the mouse stops moving (#pauses/min) was measured using a threshold start velocity of 2.00/second and a threshold stop velocity of 0 cm/s. The number of turns per minute (# turns/min) was measured by calculating the frequency for which the path of the mouse turns over a minimum distance of 3.00 cm. Velocity was assessed as the mean distance traveled (cm) over time (s).
Mice were treated for […] with saline (1,2), then 5 consecutive days with 15 mg/kg cocaine (3-7). Animals then underwent a 9 day withdrawal period from cocaine. On day 9, they received an injection of saline or 50 μg/kg of LPS. 24 hours later, the mice were retested for the locomotor response in terms of distance (cm) traveled in 15 minutes.

Data set [3] deals with mice. Put plainly: Stereotypic responses to cocaine (pausing, turning, velocity). Type of data set: in vivo, mouse. Particulars: MPLA 10 μg or 50 μg, response to cocaine. As to the method: as §1
Data set [4] can be described thus: Sickness behavior in vivo.

`COC(=O)[C@H]1[C@@H](OC(=O)c2ccccc2)C[C@@H]2CC[C@H]1N2C` [cocaine]: in the data set with adult microglial cells, the “TNFα mRNA, cultured adult microglia” value is given as 95 % of control.
In the case of monophosphoryl lipid A [MPLA], the “basal locomotion, distance” value with mice [1] (24 hours after IP injection of 10 μg MPLA) worked out at 5415±378 cm. Further, the “basal locomotion vs saline injected mice” value in the data set on mice [1] (24 hours after i.p. injection of 10 μg MPLA) is “No significant differences”. Moreover, in the data set with mice [2] (7 daily saline injections, 9 days abstinence, MPLA 10 μg, cocaine 15 mg/kg next day), the “initial response to cocaine challenge dose” value was “did not alter”. Moreover, the “locomotor response to a challenge dose of cocaine” value in the data set with mice [2] (TNFα−/− mice, MPLA 10 μg) is listed as “did not reduce”. Further, the “behavioral sensitization to cocaine” value in the data set on mice [2] (TNFα−/− mice, MPLA 10 ug IP after first cocaine 15 mg/kg, re-tested one day later) is reported as “no effect”. The “behavioral response to cocaine” value in the data set with mice [2] (WT mice, 10 days withdrawal, single MPLA 10 μg, tested 4 days later) is reported as “did not reduce”. For the same molecule, in the data set with mice [2] (wildtype mice after withdrawal, MPLA 10 μg or 50 μg, tested 24 hours later, cocaine 15 mg/kg), the “behavioral (locomotor) response to cocaine challenge” value was “dose dependently reduced”. Moreover, the “behavioral sensitization to cocaine vs saline treated mice” value in the data set on mice [2] (wildtype mice, MPLA 10 ug IP after first cocaine 15 mg/kg, re-tested 24 hours later) is reported as “reduced”. Further, in the data set with mice [3], the mean velocity entry is listed as “significant decreases”, the pausing entry is reported as “slight increase” and the turning behaviour entry is reported as “significant decreases”. For the same molecule, in data set [4], the sickness behavior result was “without inducing sickness behavior”.
